Measured values reported in PMC8355244, “A fragment-based approach identifies an allosteric pocket that impacts malate dehydrogenase activity” (Communications Biology, 2021).
Where two headings read alike, the source gives them in different places.

Molecular target: T1, WT PfMDH (Plasmodium falciparum, UniProt Q6VVP7)
T1 construct: The full-length WT PfMDH gene was cloned into pETM-13; made in house; host or cells: E. coli Rosetta 2 (DE3) pLysS
Assay: Activity screening of 4DT / 4-phenylthiazol-2-amine derivatives (oxidation of malate, absorbance at 340 nm)
Format: biochemical
Conditions: for inhibition at 500 µM: Dunnett's multiple comparisons test, read-out: Mean Diff. (positive control vs. compound); for Slope repl1 / Slope repl2: linear regression slope of absorbance 340 nm vs time; for Slope normalized repl1: slope relative to control = 1, replicate 1; for Slope normalized repl2: slope relative to control = 1, replicate 2
Experimental: The oxidation of malate to oxaloacetate was assayed spectrophotometrically in flat-bottomed Corning 96-well microplates in a total volume of 250.0 µl in 50 mM glycine buffer pH 10.2[24] with an additional 400 mM NaCl for protein stability. The increase of absorbance at 340 nm was recorded in kinetic mode using a Tecan Spark multimode microplate reader at 298 K. A mastermix of 50 mM NAD+ and 44 μM PfMDH was used for both the screening and kinetics experiments. The final concentration of protein and cofactor were […], respectively. Positive control groups were set (absence of compound) in the same plate as the treated group. The absorbance from the background noise was subtracted from the data and then a linear regression model was employed in order to get the line slope from the first 5 min of the reaction. The percentage of enzymatic activity has been calculated as described by Eq. (1)1 enzymeactivity(%)=slopetreated/slopepositivecontrol*100
1.3 µL of derivatives of 4-phenylthiazol-2-amine in 100% DMSO were mixed with 237.7 µL of a mastermix of WT PfMDH previously incubated with NAD+. The final compound concentration used in this screening was 500 µM in the presence of 0.5% (v/v) DMSO. The microplate was sealed with silver foil for 1-h incubation at 25–35 °C. Finally, reactions in both the samples and control wells were started upon the addition of 13.0 µL of 5 mM malate). At the end of the experiments, the reaction of the plate was spectrophotometrically assayed at 600 nm in order to identify turbidity due to the low solubility of the compound. All measurements were performed in duplicate.

[1] = 500 µM compound, Dunnett test details, positive control mean 100, n 2, read-out: Mean 2 (mean % enzymatic activity of treated group)
[2] = 500 µM compound, control 100%, replicate 1, read-out: % enzymatic activity repl1
[3] = 500 µM compound, control 100%, replicate 2, read-out: % enzymatic activity repl2

T1 sequence (Q6VVP7 entry or part of it): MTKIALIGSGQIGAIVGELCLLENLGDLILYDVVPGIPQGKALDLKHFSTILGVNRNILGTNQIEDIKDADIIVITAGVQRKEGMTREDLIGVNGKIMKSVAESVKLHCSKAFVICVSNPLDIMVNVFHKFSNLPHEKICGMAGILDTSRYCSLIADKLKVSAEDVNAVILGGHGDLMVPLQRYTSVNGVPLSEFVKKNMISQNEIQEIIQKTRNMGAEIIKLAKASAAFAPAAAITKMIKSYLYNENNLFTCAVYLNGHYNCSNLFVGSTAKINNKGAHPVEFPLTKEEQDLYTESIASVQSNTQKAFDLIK

For `O=C(O)c1cc(-c2cccs2)on1` [compound 1b], the remaining activity at 500 µM [1] was 60%, the inhibition at 500 µM (500 µM compound) was 40.5% and the remaining activity at 500 µM [2] was 65%. For the same compound, the remaining activity at 500 µM [3] was 54%, the “Slope repl1” value (500 µM compound, replicate 1) was 0.0217 and the “Slope repl2” value (500 µM compound, replicate 2) was 0.019. The “Slope normalized repl1” value (500 µM compound) was 0.6515, the “Slope normalized repl2” value (500 µM compound) was 0.5422 and the remaining activity at 500 µM (read-out: enzyme activity) was 60%.
With `Cc1c(CO)cnn1-c1ccccc1` [compound 6b] the enzyme activity (500 µM compound, 0.5% DMSO, vs control, mean of n = 2) was “no statistical difference with the control”, the remaining activity at 500 µM [1] was 80% and the inhibition at 500 µM (500 µM compound) was 20%. For the same compound, the remaining activity at 500 µM [2] was 80%, the remaining activity at 500 µM [3] was 80% and the “Slope repl1” value (500 µM compound, replicate 1) was 0.02662. For the same compound, the “Slope repl2” value (500 µM compound, replicate 2) was 0.02788, the “Slope normalized repl1” value (500 µM compound) was 0.7992 and the “Slope normalized repl2” value (500 µM compound) was 0.7957.
`Nc1nc(-c2ccc(F)cc2)cs1` [compound 9a] gave a remaining activity at 500 µM [1] of 51%, an inhibition at 500 µM (500 µM compound) of 49% and a remaining activity at 500 µM [2] of 57%. The remaining activity at 500 µM [3] was 45%, the “Slope repl1” value (500 µM compound, replicate 1) was 0.01901 and the “Slope repl2” value (500 µM compound, replicate 2) was 0.01582. The “Slope normalized repl1” value (500 µM compound) was 0.5707, the “Slope normalized repl2” value (500 µM compound) was 0.4515 and the remaining activity at 500 µM (read-out: enzyme activity) was 51%.
